Measured values published in US8722937B2 (priority 2006, dated 2014).
In brackets after ≈: the same amount, converted by molar mass. Where two headings read alike, the source gives them in different places.

Assays:
S. aureus (ATCC 25923) [1] = assay: microbe, parasite or virus in culture; type: cell-based, Staphylococcus aureus; details: 24 h, 37° C.; for zone of inhibition at 20 µg/disc: Staphylococcus aureus, ATCC25923
[2] = system: methicillin-resistant S. aureus (MRSA); assay: microbe, parasite or virus in culture; type: cell-based, Staphylococcus aureus; details: 24 h, 37° C.; for zone of inhibition at 20 µg/disc: Staphylococcus aureus, MRSA, read-out: Average zones of growth inhibition of MRSA (USF-652-659, 919-920)
S. aureus (ATCC 25923) [3] = assay: Agar dilution minimum inhibitory concentration (MIC), S. aureus; type: cell-based, Staphylococcus aureus; details: serial dilution in 24-well plate, NCCLS; for MIC: Staphylococcus aureus, ATCC25923, read-out: Minimum inhibitory concentration (MIC) against S. aureus (ATCC 25923)
B. anthracis (USF 848) [4] = assay: microbe, parasite or virus in culture; type: cell-based, Bacillus anthracis; details: 24 h, 37° C.; for zone of inhibition at 20 µg/disc: Bacillus anthracis
B. anthracis (USF 848) [5] = assay: microbe, parasite or virus in culture; type: cell-based, Bacillus anthracis; details: for MIC: Bacillus anthracis, read-out: Minimum inhibitory concentration (MIC) against B. anthracis (USF 848)
[6] = read-out: Zones of growth inhibition of S. aureus (ATCC 25923), areas of partial inhibition
[7] = read-out: Zones of growth inhibition of S. aureus (ATCC 25923)
[8] = read-out: Zones of growth inhibition of B. anthracis (USF 848), areas of partial growth inhibition
[9] = read-out: Zones of growth inhibition of B. anthracis (USF 848)

CCSSCCNC(=O)CCNC(=O)[C@H](O)C(C)(C)COP(=O)(O)OP(=O)(O)OC[C@H]1O[C@@H](n2cnc3c(N)ncnc32)[C@H](O)[C@@H]1OP(=O)(O)O [Compound 25b]
Zones of growth inhibition, S. aureus (S. aureus (ATCC 25923) [1]): 0 mm | Zones of growth inhibition, MRSA [2]: 0 mm

CSS(C)(=O)=O [Compound 26a, reference compound]
Zones of growth inhibition, S. aureus (S. aureus (ATCC 25923) [1]): 22 mm | Zones of growth inhibition, MRSA [2]: 23 mm

CCSS(C)(=O)=O [Compound 26b]
Zones of growth inhibition, S. aureus (S. aureus (ATCC 25923) [1]): 19 mm | Zones of growth inhibition, MRSA [2]: 20 mm

CCC(C)SS(C)(=O)=O (centres unmarked) [Compound 26c]
Zones of growth inhibition, S. aureus (S. aureus (ATCC 25923) [1]): 23 mm | Zones of growth inhibition, MRSA [2]: 23 mm

CSSc1ccc(F)c(F)c1 [Compound 33a, 3,4-Difluorophenyl Methyl Disulfide]
zone of inhibition at 20 µg/disc (S. aureus (ATCC 25923) [1]; [6]): 11 mm

CCSSc1ccc(F)c(F)c1 [Compound 33b, 3,4-Difluorophenyl Ethyl Disulfide]
zone of inhibition at 20 µg/disc (S. aureus (ATCC 25923) [1]; [6]): 9 mm

CC(C)SSc1ccc(F)c(F)c1 [Compound 33c, 3,4-Difluorophenyl Isopropyl Disulfide]
zone of inhibition at 20 µg/disc (S. aureus (ATCC 25923) [1]; [6]): 9 mm

CCC(C)SSc1ccc(F)c(F)c1 (centres unmarked) [Compound 33d, Sec-Butyl 3,4-Difluorophenyl Disulfide]
zone of inhibition at 20 µg/disc (S. aureus (ATCC 25923) [1]; [6]): 9 mm

CCCSSc1ccc(F)c(F)c1 [Compound 33e, 3,4-Difluorophenyl n-propyl Disulfide]
zone of inhibition at 20 µg/disc (S. aureus (ATCC 25923) [1]; [7]): 0 mm

CCCCSSc1ccc(F)c(F)c1 [Compound 33f, n-Butyl 3,4-difluorophenyl Disulfide]
zone of inhibition at 20 µg/disc (S. aureus (ATCC 25923) [1]; [6]): 10 mm

CCSSc1ccccc1Cl [Compound 34b, o-Chlorophenyl Ethyl Disulfide]
zone of inhibition at 20 µg/disc (S. aureus (ATCC 25923) [1]; [6]): 9 mm

CC(C)SSc1ccccc1Cl [Compound 34c, o-Chlorophenyl Isopropyl Disulfide]
zone of inhibition at 20 µg/disc (S. aureus (ATCC 25923) [1]; [6]): 11 mm

CCC(C)SSc1ccccc1Cl (centres unmarked) [Compound 34d, s-Butyl o-chlorophenyl Disulfide]
zone of inhibition at 20 µg/disc (S. aureus (ATCC 25923) [1]; [6]): 10 mm

CCCSSc1ccccc1Cl [Compound 34e, o-Chlorophenyl n-propyl Disulfide]
zone of inhibition at 20 µg/disc (S. aureus (ATCC 25923) [1]; [7]): 0 mm

CCCCSSc1ccccc1Cl [Compound 34f, n-Butyl o-chlorophenyl Disulfide]
zone of inhibition at 20 µg/disc (S. aureus (ATCC 25923) [1]; [6]): 9 mm

CSSc1ccc(C)c(C)c1 [Compound 35a, 3,4-Dimethylphenyl Methyl Disulfide]
zone of inhibition at 20 µg/disc (S. aureus (ATCC 25923) [1]; [6]): 10 mm

CCSSc1ccc(C)c(C)c1 [Compound 35b, 3,4-Dimethylphenyl ethyl disulfide]
zone of inhibition at 20 µg/disc (S. aureus (ATCC 25923) [1]; [7]): 0 mm

Cc1ccc(SSC(C)C)cc1C [Compound 35c, 3,4-Dimethylphenyl Isopropyl Disulfide]
zone of inhibition at 20 µg/disc (S. aureus (ATCC 25923) [1]; [6]): 9 mm

CCC(C)SSc1ccc(C)c(C)c1 (centres unmarked) [Compound 35d, sec-Butyl 3,4-dimethylphenyl Disulfide]
zone of inhibition at 20 µg/disc (S. aureus (ATCC 25923) [1]; [7]): 0 mm

CCCSSc1ccc(C)c(C)c1 [Compound 35e, 3,4-Dimethylphenyl n-propyl Disulfide]
zone of inhibition at 20 µg/disc (S. aureus (ATCC 25923) [1]; [7]): 0 mm

CCCCSSc1ccc(C)c(C)c1 [Compound 35f, n-Butyl 3,4-dimethylphenyl Disulfide]
zone of inhibition at 20 µg/disc (S. aureus (ATCC 25923) [1]; [7]): 0 mm

CCOc1cccc(SSC)c1 [Compound 36a, m-Ethoxyphenyl Methyl Disulfide]
zone of inhibition at 20 µg/disc (S. aureus (ATCC 25923) [1]; [6]): 9 mm

CSSc1ccc(N)cc1 [Compound 39a, p-Aminophenyl Methyl Disulfide]
zone of inhibition at 20 µg/disc (S. aureus (ATCC 25923) [1]; [7]): 0 mm

CSSc1ccccc1CO [Compound 41a, o-(Hydroxymethyl)phenyl Methyl Disulfide]
zone of inhibition at 20 µg/disc (S. aureus (ATCC 25923) [1]; [6]): 14 mm | MIC (S. aureus (ATCC 25923) [3]): 64 µg/mL (≈ 344 µM)

CSSc1ccccn1 [Compound 42a, Methyl 2-pyridinyl Disulfide]
activity against S. aureus (ATCC 25923) in Kirby-Bauer assay, in words (S. aureus (ATCC 25923) [1]): some activity | zone of inhibition at 20 µg/disc (S. aureus (ATCC 25923) [1]; [7]): 16 mm | zone of inhibition at 20 µg/disc (S. aureus (ATCC 25923) [1]; [6]): 23 mm | MIC (S. aureus (ATCC 25923) [3]): 64 µg/mL (≈ 407 µM)

CCSSc1ccccn1 [Compound 42b, Ethyl 2-pyridinyl Disulfide]
activity against S. aureus (ATCC 25923) in Kirby-Bauer assay, in words (S. aureus (ATCC 25923) [1]): some activity | zone of inhibition at 20 µg/disc (S. aureus (ATCC 25923) [1]; [6]): 21 mm | MIC (S. aureus (ATCC 25923) [3]): 32 µg/mL (≈ 187 µM) | zone of inhibition at 20 µg/disc (B. anthracis (USF 848) [4]; [8]): 27 mm

CC(C)SSc1ccccn1 [Compound 42c, Isopropyl 2-pyridinyl Disulfide]
zone of inhibition at 20 µg/disc (S. aureus (ATCC 25923) [1]; [7]): 0 mm | zone of inhibition at 20 µg/disc (B. anthracis (USF 848) [4]; [8]): 16 mm

CCC(C)SSc1ccccn1 (centres unmarked) [Compound 42d, s-Butyl 2-pyridinyl Disulfide]
zone of inhibition at 20 µg/disc (S. aureus (ATCC 25923) [1]; [7]): 0 mm | zone of inhibition at 20 µg/disc (B. anthracis (USF 848) [4]; [8]): 17 mm

CCSSc1cccc([N+](=O)[O-])c1 [Compound 43b, Ethyl m-nitrophenyl Disulfide]
zone of inhibition at 20 µg/disc (S. aureus (ATCC 25923) [1]; [6]): 45 mm | zone of inhibition at 20 µg/disc [2]: 12 mm | MIC (S. aureus (ATCC 25923) [3]): 48 µg/mL (≈ 223 µM) | zone of inhibition at 20 µg/disc (B. anthracis (USF 848) [4]; [9]): 32 mm | zone of inhibition at 20 µg/disc (B. anthracis (USF 848) [4]; [8]): 40 mm | MIC (B. anthracis (USF 848) [5]): 0.38 µg/mL (≈ 1.76 µM)

CC(C)SSc1cccc([N+](=O)[O-])c1 [Compound 43c, Isopropyl m-nitrophenyl Disulfide]
Zones of growth inhibition of S. aureus (ATCC 25923) (S. aureus (ATCC 25923) [1]): 55 (85) mm | Zones of growth inhibition of S. aureus (ATCC 25923), areas of partial inhibition (S. aureus (ATCC 25923) [1]): 55 (85) mm | zone of inhibition at 20 µg/disc (S. aureus (ATCC 25923) [1]; [7]): 55 mm | zone of inhibition at 20 µg/disc (S. aureus (ATCC 25923) [1]; [6]): 85 mm | zone of inhibition at 20 µg/disc [2]: 38 mm | MIC (S. aureus (ATCC 25923) [3]): 0.4 µg/mL (≈ 1.74 µM) | zone of inhibition at 20 µg/disc (B. anthracis (USF 848) [4]; [9]): 30 mm | zone of inhibition at 20 µg/disc (B. anthracis (USF 848) [4]; [8]): 54 mm | MIC (B. anthracis (USF 848) [5]): < 0.125 µg/mL

CCC(C)SSc1cccc([N+](=O)[O-])c1 (centres unmarked) [Compound 43d, s-Butyl m-nitrophenyl Disulfide]
Zones of growth inhibition of S. aureus (ATCC 25923) (S. aureus (ATCC 25923) [1]): 25 (45) mm | Zones of growth inhibition of S. aureus (ATCC 25923), areas of partial inhibition (S. aureus (ATCC 25923) [1]): 25 (45) mm | zone of inhibition at 20 µg/disc (S. aureus (ATCC 25923) [1]; [7]): 25 mm | zone of inhibition at 20 µg/disc (S. aureus (ATCC 25923) [1]; [6]): 45 mm | zone of inhibition at 20 µg/disc [2]: 22 mm | MIC (S. aureus (ATCC 25923) [3]): 2 µg/mL (≈ 8.22 µM) | zone of inhibition at 20 µg/disc (B. anthracis (USF 848) [4]; [9]): 27 mm | zone of inhibition at 20 µg/disc (B. anthracis (USF 848) [4]; [8]): 41 mm | MIC (B. anthracis (USF 848) [5]): < 0.125 µg/mL

CCSSc1ccccc1[N+](=O)[O-] [Compound 44b]
Zones of growth inhibition of S. aureus (ATCC 25923) (S. aureus (ATCC 25923) [1]): 29(40) mm | Zones of growth inhibition of S. aureus (ATCC 25923), areas of partial inhibition (S. aureus (ATCC 25923) [1]): 29(40) mm | Minimum inhibitory concentration (MIC) against S. aureus (ATCC 25923) (S. aureus (ATCC 25923) [3]): 16 µg/mL (≈ 74.3 µM) | Zones of growth inhibition of B. anthracis (USF 848) (B. anthracis (USF 848) [4]): 35 mm | Minimum inhibitory concentration (MIC) against B. anthracis (USF 848) (B. anthracis (USF 848) [5]): 0.63 µg/mL (≈ 2.93 µM)

CC(C)SSc1ccccc1[N+](=O)[O-] [Compound 44c, Isopropyl o-nitrophenyl Disulfide]
Zones of growth inhibition of S. aureus (ATCC 25923) (S. aureus (ATCC 25923) [1]): 17 (31) mm | Zones of growth inhibition of S. aureus (ATCC 25923), areas of partial inhibition (S. aureus (ATCC 25923) [1]): 17 (31) mm | zone of inhibition at 20 µg/disc (S. aureus (ATCC 25923) [1]; [7]): 17 mm | zone of inhibition at 20 µg/disc (S. aureus (ATCC 25923) [1]; [6]): 31 mm | zone of inhibition at 20 µg/disc [2]: 20 mm | MIC (S. aureus (ATCC 25923) [3]): 6 µg/mL (≈ 26.2 µM) | zone of inhibition at 20 µg/disc (B. anthracis (USF 848) [4]; [9]): 16 mm | zone of inhibition at 20 µg/disc (B. anthracis (USF 848) [4]; [8]): 27 mm | MIC (B. anthracis (USF 848) [5]): 0.63 µg/mL (≈ 2.75 µM)

CCC(C)SSc1ccccc1[N+](=O)[O-] (centres unmarked) [Compound 44d, s-Butyl o-nitrophenyl Disulfide]
Zones of growth inhibition of S. aureus (ATCC 25923) (S. aureus (ATCC 25923) [1]): 15 (24) mm | Zones of growth inhibition of S. aureus (ATCC 25923), areas of partial inhibition (S. aureus (ATCC 25923) [1]): 15 (24) mm | zone of inhibition at 20 µg/disc (S. aureus (ATCC 25923) [1]; [7]): 15 mm | zone of inhibition at 20 µg/disc (S. aureus (ATCC 25923) [1]; [6]): 24 mm | MIC (S. aureus (ATCC 25923) [3]): 16 µg/mL (≈ 65.7 µM) | zone of inhibition at 20 µg/disc (B. anthracis (USF 848) [4]; [9]): 23 mm | MIC (B. anthracis (USF 848) [5]): 0.75 µg/mL (≈ 3.08 µM)

CSSc1ccc(NC(C)=O)cc1 [Compound 46a, p-Acetamidophenyl Methyl Disulfide]
zone of inhibition at 20 µg/disc (S. aureus (ATCC 25923) [1]; [6]): 20 mm | zone of inhibition at 20 µg/disc (B. anthracis (USF 848) [4]; [8]): 23 mm | MIC (B. anthracis (USF 848) [5]): 8 µg/mL (≈ 37.5 µM)
